Data from patent US20230341404A1, “TARGETING STROMA-CANCER INTERACTIONS IN CANCER” (The Regents of the University of California, priority 2022, published 2023).
Residues, ends and D or L forms follow the SMILES beside them. *: point of attachment. Cbz = O=C(OCc1ccccc1)*

Tests used:
KPC or KC cells [1] = test: luminescence ATP detection assay; type: cell-based, mouse; conditions: cells cultured on wild-type ECM, 24 h
Procedure: KPC or KC cells were grown on 96-well plates coated with or without the indicated ECM in the presence of 100 μl CM or LG medium with or without EIPA (10.5 μM), MBQ-167 (500 nM), MRT68921 (600 nM) or their combinations for 24 h. Then the cell number was measured. Intracellular ATP was determined with a luminescence ATP detection assay system (PerkinElmer) according to the manufacturer's protocol. Finally, luminescence was measured and normalized to cell number.

KPC or KC cells [2] = test: L-amino acid assay; type: cell-based, mouse; conditions: cells cultured on wild-type ECM, LG medium, 24 h
Procedure: KPC or KC cells were grown on six-well plates coated with or without the indicated ECM in the presence of […] LG medium with or without EIPA (10.5 μM), MRT68921 (600 nM) or their combinations for 24 h. Total amounts of free 1-amino acids (except for glycine) were measured using an L-Amino Acid Assay Kit (Colorimetric, […]) according to the manufacturer's protocol. The concentration of 1-amino acids was calculated within samples by comparing the sample optical density to the standard curve and normalized to cell number.

KPC or KC cells [3] = test: uptake of [3H] from [3H]-proline-labelled ECM; type: cell-based, mouse; conditions: LG medium, 24 h
Procedure: To assess the effects of Col I on metabolism, Applicant labeled wild-type and R/R fibroblasts with [^3H]-proline or [U-^13C]-glutamine for five days, during which period the cells coated the plates with Col I-containing ECM. After decellularization, KPC or KC cells and variants thereof were plated and cultured for 24 h in LG medium. The uptake of [^3H] in cells plated on wild-type ECM was dependent on macropinocytosis, as indicated by sensitivity to macropinocytosis inhibitors (EIPA (an NHE1 inhibitor), IPI549 (a PI3Kγ inhibitor) or MBQ-167 (a CDC42 and RAC inhibitor)) and to the knockdown of NHE 1 or SDC1, and enhancement by the ULK1 inhibitor MRT68921 (MRT)^11.
Wild-type or R/R fibroblasts were seeded on 6, 12 or 96-well plates. One day after plating, cells were switched into DMEM (with pyruvate) with 10% dialysed FBS supplemented with or without 500 μM [^3H]-proline or [U-^[…]]-glutamine and 100 μM vitamin C. Cells were cultured for five days with renewal of the medium every 24 h. Then fibroblasts were removed by washing in 1 ml or 500 μl or 100 μl per well PBS with 0.5% (v/v) Triton X-100 and 20 mM NH4OH. The ECM was washed five times with PBS before cancer cell plating. The following day, cancer cells were switched into the indicated medium for 24 or 72 h.

PDAC cells = test: cell viability assay (Cell Counting Kit-8) on wild-type or R/R ECM; type: cell-based, mouse and human; conditions: LG medium
Procedure: Cells were plated in 96-well plates coated with or without ECM at a density of 3,000 cells (MIA, 1305) or 1,500 cells (KPC or KC) per well and incubated overnight before treatment. 7rh (500 nM), ML120B (10 μM), EIPA (10.5 μM), IPI549 (600 nM), MBQ-167 (500 nM), MRT68921 (600 nM) or ML385 (10 μM), or their combinations, were added to the wells in the presence of complete medium (CM), LG medium or LQ medium for 72 h. Cell viability was determined with a Cell Counting Kit-8 assay (Glpbio). Optical density was read at 450 nm and analysed using a microplate reader with SoftMax 6.5 software (FilterMax F5, Molecular Devices). For all experiments, the medium was replaced every 24 h.

KPC cells = test: intrasplenic PDAC cell implantation (liver tumours); type: in vivo, mouse; conditions: 10 mg kg^−1 EIPA intraperitoneal every other day
Procedure: FIGS. 14A-14J: Effect of macropinocytosis and mitochondria on Col I-controlled PDAC cell growth. FIG. 14A, Bromodeoxyuridine (BrdU) incorporation into KPC cells plated on ECM mixtures produced by R/R and WT fibroblasts (R:W). Scale bars, 10 μm. FIG. 14B, FIG. 14C, Paren. and IKKα^KD KPC (FIG. 14B) or KC (FIG. 14C) cells were plated −/+ WT or R/R ECM and incubated in LG −/+ indicated reagents. Viable cells were measured after 3 days and depicted relative to untreated plastic-plated Paren. cells. (FIG. 14C). IKKα KD efficiency is shown on the right (FIG. 14B). FIGS. D, E, Viable 1305 (FIG. 14D) or MIA PaCa-2 (FIG. 14E) cells plated as above and incubated in LG −/+ EIPA. f, Viable Paren. and E79Q KPC cells plated, treated, and presented as above. […] Total viable cells were measured as above and are presented relative to the untreated cells. FIG. 14H, Mitochondrial ATP production calculated from FIG. 6B. […] Quantification of the SR positive area is shown on the left. […] Statistical significance determined by two-tailed t-test. […]
Three-month-old Col I^WT or Col I^r/r mice were treated with or without an oral gavage of 25% CCl4 in corn oil twice a week for two weeks. […] Mice were analysed 14 days after treatment with or without 10 mg kg^−1 EIPA (Sigma) by intraperitoneal injection every other day.

DDR1 = test: immunoblot of DDR1 in KPC cells plated on wild-type or R/R ECM; type: cell-based, mouse; conditions: LG medium, 24 h
Procedure: FIGS. 4A-4G: The Col I—DDR1—NRF2 axis controls macropinocytosis and mitochondrial biogenesis. FIG. 4A, Representative images and quantification of mitochondria and macropinocytosis in TMR-DEX-incubated parental and variant KPC cells grown on wild-type ECM. FIG. 4B, Immunoblot analysis of the indicated proteins in KPC cells grown on plastic or wild-type or R/R ECM and incubated in LG or LQ medium for 24 h. The effects of wild-type and R/R ECM on DDR1 signaling are summarized on the right. mito., mitochondria; pDDR1, phosphorylated DDR1. FIG. 4C, Representative images and quantification of mitochondria and macropinocytosis in TMR-DEX-incubated parental and NRF2^E79Q (E79Q) KPC cells plated on wild-type or R/R ECM in LG medium with or without 7rh or ML120B for 24 h. […] Statistical significance determined by two-tailed t-test. […]
The expression and function of DDR1 vary in different cancer stages and types^18-21. […] Unlike DDR1 in triple-negative breast cancer (TNBC)^20, no shedding of the DDR1 extracellular domain was detected (FIG. 12F). […]
Preparation of protein samples from cells and tissues, immunoblotting and immunoprecipitation were performed as before^10, 30. Immunoreactive bands were detected by an automatic X-ray film processor or a KwikQuant Imager.

[4] = parental cells on wild-type ECM, 7rh 500 nM, ML120B 10 μM, ML385 10 μM, EIPA 10.5 μM, IPI549 600 nM, MBQ-167 500 nM
[5] = IKKα^KD cells versus parental cells

SMILES	uptake of [3H] (KPC or KC cells [3]; cells plated on wild-type ECM)	cell growth (viable cells) (PDAC cells; parental cells on R/R ECM)	cell growth (viable cells) (PDAC cells; [4])	uptake of [3H] (KPC or KC cells [3]; cells plated on R/R ECM)	cell growth (viable cells) (PDAC cells; [5])	other results
CN1CCc2cc(Nc3ncc(C4CC4)c(NCCCNC(=O)C4CCC4)n3)ccc2C1 [MRT68921]	enhancement					levels of ATP (KPC or KC cells [1]): further increased; amino acid content (KPC or KC cells [2]): further increased
COc1c(Cl)cc2c([nH]c3cnccc32)c1NC(=O)c1cccnc1C [ML120B]		did not decrease the low growth	decreased growth on wild-type ECM			cell growth (viable cells) (PDAC cells; NRF2(E79Q)-expressing cells): resistant
CCN(c1nc(N)c(C(=O)NC(=N)N)nc1Cl)C(C)C [EIPA]	sensitivity	did not decrease the low growth	decreased growth on wild-type ECM	unaffected	more sensitive	tumour growth (KPC cells; Col I^r/r livers): had little effect; tumour growth (KPC cells; wild-type livers): inhibited tumour growth
CCn1c2ccccc2c2cc(-n3nncc3-c3ccccc3)ccc21 (racemic) [MBQ-167]	sensitivity	did not decrease the low growth	decreased growth on wild-type ECM	unaffected	more sensitive	
C[C@H](NC(=O)c1c(N)nn2cccnc12)c1cc2cccc(C#Cc3cnn(C)c3)c2c(=O)n1-c1ccccc1 [IPI549]	sensitivity	did not decrease the low growth	decreased growth on wild-type ECM	unaffected	more sensitive	
Cc1ccccc1C(=O)N1CCc2cc(-c3nc(NC(=O)Cc4ccc5c(c4)OCO5)sc3C)ccc21 [ML385]		did not decrease the low growth	decreased growth on wild-type ECM			
CC(C)C[C@@H](C=O)NC(=O)[C@H](CC(C)C)NC(=O)[C@H](CC(C)C)NC(=O)OCc1ccccc1 [MG132] (Cbz-Leu-Leu-Leu-aldehyde)						DDR1 expression (DDR1): rescued DDR1 expression
